Drawing on the Kinase Knowledgebase extract (Sharma et al. 2016), this text covers IC50 and inhibition for 25 compounds.

For one assay, the target named is MAPK14 (human) (UniProt Q16539). As to the kind of experiment: Inhibition of TNF-alpha Release from PBMC.
Another assay deals with MAPK14 (Balb/c mice). As to the kind of experiment: Inhibition of TNF-alpha Release in Balb/c Mice. The settings on record: dose or concentration not given here.

Sequence of MAPK14 (human) (Q16539 whole entry, looked up): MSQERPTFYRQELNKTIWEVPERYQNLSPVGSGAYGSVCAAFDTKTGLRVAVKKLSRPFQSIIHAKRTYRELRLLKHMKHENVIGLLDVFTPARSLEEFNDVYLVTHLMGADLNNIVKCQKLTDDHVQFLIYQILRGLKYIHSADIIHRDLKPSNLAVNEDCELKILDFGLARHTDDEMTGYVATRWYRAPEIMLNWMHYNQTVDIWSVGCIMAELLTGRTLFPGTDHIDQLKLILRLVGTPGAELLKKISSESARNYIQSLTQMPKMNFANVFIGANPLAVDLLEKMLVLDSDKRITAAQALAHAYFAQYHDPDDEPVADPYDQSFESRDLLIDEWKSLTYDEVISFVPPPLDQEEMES

`Nc1ccn2c(-c3ccncn3)c(-c3cccc(C(F)(F)F)c3)nc2n1`: the IC50 (as a rule, the concentration that inhibits the measured activity by half) against MAPK14 (human) turned out to be 278 nM. In addition, the inhibition (in general, the share of the control response that was lost under treatment) in the assay with MAPK14 (Balb/c mice) is 85%.
In turn, `Nc1ccn2c(-c3ccnc(N4CCCCC4)n3)c(-c3ccccc3)nc2n1` had an IC50 against MAPK14 (human) of 8 nM. Besides, the inhibition in the assay on MAPK14 (Balb/c mice) came to 63%.
Turning to `Nc1ccn2c(-c3ccncc3)c(-c3ccc(F)c(Cl)c3)nc2n1`, the IC50 on MAPK14 (human) turned out to be 21 nM. The same compound yielded an inhibition in the assay with MAPK14 (Balb/c mice) of 100%.
On the same counts, the results for `CSc1nccc(-c2c(-c3cccc(C(F)(F)F)c3)nc3nc(N)ccn23)n1` are 27 nM and 38%.
At MAPK14 (human), `CSc1nccc(-c2c(-c3ccc(F)cc3)nc3nc(N)ccn23)n1` registered an IC50 of 37 nM. The same compound had an inhibition in the assay with MAPK14 (Balb/c mice) of 68%.
Take `Nc1ccn2c(-c3ccncn3)c(-c3ccc(F)cc3)nc2n1`: the IC50 against MAPK14 (human) was determined as 199 nM. Besides, the inhibition in the assay on MAPK14 (Balb/c mice) was 91%.
On the same counts, the results for `Nc1ccn2c(-c3ccncc3)c(-c3cccc(F)c3)nc2n1` are 55 nM and 100%.
For `CS(=O)(=O)c1nccc(-c2c(-c3cccc(C(F)(F)F)c3)nc3nc(N)ccn23)n1`, in that order: 520 nM and 10%.
In turn, `COc1nccc(-c2c(-c3ccccc3)nc3nc(N)ccn23)n1` returned an inhibition with MAPK14 (Balb/c mice) of 87%.
For the compound `CS(=O)(=O)c1nccc(-c2c(-c3ccccc3)nc3nc(N)ccn23)n1`, the IC50 against MAPK14 (human) worked out at 3410 nM.
Regarding `C[C@H](Nc1nccc(-c2c(-c3ccccc3)nc3nc(N)ccn23)n1)c1ccccc1`, the IC50 on MAPK14 (human) was 0.4 nM. The compound further displayed an inhibition with MAPK14 (Balb/c mice) of 100%.
Compound `Nc1ccn2c(-c3ccncc3)c(-c3ccc(F)cc3)nc2n1` yielded an IC50 against MAPK14 (human) of 49 nM. This compound also displayed an inhibition in the assay on MAPK14 (Balb/c mice) of 100%.
The compound `Nc1ccn2c(-c3ccncc3)c(-c3cccc(Cl)c3)nc2n1` displayed an IC50 against MAPK14 (human) of 162 nM. Further, the inhibition in the assay on MAPK14 (Balb/c mice) came out at 47%.
In the case of `C[C@H](Nc1nccc(-c2c(-c3cccc(C(F)(F)F)c3)nc3nc(N)ccn23)n1)c1ccccc1`, the IC50 on MAPK14 (human) turned out to be 0.5 nM. Besides, the inhibition in the assay with MAPK14 (Balb/c mice) stood at 97%.
Compound `Nc1ccn2c(-c3ccnc4ccccc34)c(-c3ccc(F)cc3)nc2n1` came in with an IC50 against MAPK14 (human) of 333 nM. Moreover, the inhibition in the assay on MAPK14 (Balb/c mice) came to 26%.
As for `Nc1ccn2c(-c3ccncn3)c(-c3ccccc3)nc2n1`, the inhibition in the assay with MAPK14 (Balb/c mice) is 73%.
On to `C[C@H](Nc1nccc(-c2c(-c3ccc(F)cc3)nc3nc(N)ccn23)n1)C1CCCCC1`, for which, on MAPK14 (human), the IC50 was found to be 1 nM. The compound also yielded an inhibition in the assay with MAPK14 (Balb/c mice) of 74%.
For the compound `Nc1ccn2c(-c3ccnc(NCc4ccccc4)c3)c(-c3cccc(C(F)(F)F)c3)nc2n1`, the IC50 against MAPK14 (human) is 4 nM. Besides, the inhibition in the assay on MAPK14 (Balb/c mice) was 19%.
Turning to `COc1ccc(CNc2nccc(-c3c(-c4ccccc4)nc4nc(N)ccn34)n2)cc1`, on MAPK14 (human), the IC50 amounted to 14 nM.
In the case of `CSc1nccc(-c2c(-c3cccc(F)c3)nc3nc(N)ccn23)n1`, on MAPK14 (human), the IC50 was 10 nM. Moreover, the inhibition in the assay on MAPK14 (Balb/c mice) was determined as 51%.
On the same counts, the results for `Nc1ccn2c(-c3ccncc3)c(-c3cccc(C(F)(F)F)c3)nc2n1` are 35 nM and 99%.
In the case of `C[C@H](Nc1cc(-c2c(-c3ccc(F)cc3)nc3nc(N)ccn23)ccn1)c1ccccc1`, the inhibition with MAPK14 (Balb/c mice) was found to be 97%.
Same read-out and setting: under `Nc1ccn2c(-c3ccnc(NCc4ccccc4)c3)c(-c3ccc(F)cc3)nc2n1` stands 42%.
Turning to `Nc1ccn2c(-c3ccncc3)c(-c3ccccc3)nc2n1`, the IC50 on MAPK14 (human) was 55 nM. This compound also returned an inhibition in the assay on MAPK14 (Balb/c mice) of 100%.
Regarding `CSc1nccc(-c2c(-c3ccccc3)nc3nc(N)ccn23)n1`, the inhibition with MAPK14 (Balb/c mice) was found to be 23%.
